Measurements as given in the NIST ThermoML archive (doi:10.1021/je6005778).
Numbers after ± are expanded uncertainties.

Settings: Liquid; for speed of sound: Pulse-echo method

CCC(O)CO (stereo unspecified) [1,2-butanediol]
mass density (288.15 K, 101.33 kPa): 1005.78 ± 0.34 kg/m3
speed of sound (292.87 K, 45600 kPa): 1634.3 ± 2.5 m/s
speed of sound (292.87 K, 60790 kPa): 1681.5 ± 2.5 m/s
speed of sound (292.87 K, 75990 kPa): 1726 ± 2.5 m/s
speed of sound (292.87 K, 91190 kPa): 1768 ± 2.5 m/s
speed of sound (292.87 K, 101320 kPa): 1794.7 ± 2.5 m/s
speed of sound (292.88 K, 15200 kPa): 1528.2 ± 2.6 m/s
speed of sound (292.88 K, 30400 kPa): 1583.2 ± 2.6 m/s
speed of sound (292.93 K, 101.33 kPa): 1466.5 ± 1.6 m/s
mass density (293.15 K, 101.33 kPa): 1002.12 ± 0.33 kg/m3
speed of sound (298.1 K, 101.33 kPa): 1451.3 ± 1.6 m/s
mass density (298.15 K, 101.33 kPa): 998.408 ± 0.33 kg/m3
speed of sound (298.15 K, 15200 kPa): 1513.5 ± 2.6 m/s
speed of sound (298.15 K, 30400 kPa): 1569.2 ± 2.6 m/s
speed of sound (298.15 K, 45600 kPa): 1621.1 ± 2.6 m/s
speed of sound (298.15 K, 60790 kPa): 1668.8 ± 2.5 m/s
speed of sound (298.15 K, 75990 kPa): 1713.8 ± 2.5 m/s
speed of sound (298.15 K, 91190 kPa): 1755.9 ± 2.5 m/s
speed of sound (298.15 K, 101320 kPa): 1783 ± 2.5 m/s
speed of sound (303.13 K, 15200 kPa): 1500 ± 2.6 m/s
speed of sound (303.13 K, 30400 kPa): 1556.4 ± 2.6 m/s
speed of sound (303.13 K, 45600 kPa): 1608.8 ± 2.6 m/s
speed of sound (303.13 K, 60790 kPa): 1657.1 ± 2.5 m/s
speed of sound (303.13 K, 75990 kPa): 1702.2 ± 2.5 m/s
speed of sound (303.13 K, 91190 kPa): 1745 ± 2.5 m/s
speed of sound (303.13 K, 101320 kPa): 1772.3 ± 2.5 m/s
mass density (303.15 K, 101.33 kPa): 994.659 ± 0.33 kg/m3
speed of sound (303.18 K, 101.33 kPa): 1436.5 ± 1.6 m/s
speed of sound (308.12 K, 60790 kPa): 1645.5 ± 2.5 m/s
speed of sound (308.12 K, 91190 kPa): 1734.2 ± 2.5 m/s
speed of sound (308.13 K, 15200 kPa): 1486.6 ± 2.6 m/s
speed of sound (308.13 K, 30400 kPa): 1543.5 ± 2.6 m/s
speed of sound (308.13 K, 45600 kPa): 1596.5 ± 2.6 m/s
speed of sound (308.13 K, 75990 kPa): 1691 ± 2.5 m/s
speed of sound (308.13 K, 101320 kPa): 1761.7 ± 2.5 m/s
mass density (308.15 K, 101.33 kPa): 990.872 ± 0.33 kg/m3
speed of sound (308.17 K, 101.33 kPa): 1421.8 ± 1.6 m/s
mass density (313.15 K, 101.33 kPa): 987.048 ± 0.34 kg/m3
speed of sound (313.3 K, 30400 kPa): 1530.3 ± 2.6 m/s
speed of sound (313.3 K, 45600 kPa): 1583.7 ± 2.6 m/s
speed of sound (313.3 K, 60790 kPa): 1633.4 ± 2.5 m/s
speed of sound (313.3 K, 75990 kPa): 1679.3 ± 2.5 m/s
speed of sound (313.3 K, 91190 kPa): 1723 ± 2.5 m/s
speed of sound (313.3 K, 101320 kPa): 1750.4 ± 2.5 m/s
speed of sound (313.31 K, 15200 kPa): 1472.8 ± 2.6 m/s
speed of sound (313.35 K, 101.33 kPa): 1406.7 ± 1.6 m/s
mass density (318.15 K, 101.33 kPa): 983.185 ± 0.34 kg/m3
speed of sound (318.15 K, 101.33 kPa): 1392.6 ± 1.6 m/s
mass density (323.15 K, 101.33 kPa): 979.285 ± 0.35 kg/m3
mass density (328.15 K, 101.33 kPa): 975.354 ± 0.35 kg/m3
mass density (333.15 K, 101.33 kPa): 971.386 ± 0.36 kg/m3
mass density (338.16 K, 101.33 kPa): 967.378 ± 0.36 kg/m3
mass density (343.15 K, 101.33 kPa): 963.333 ± 0.37 kg/m3
mass density (348.16 K, 101.33 kPa): 959.256 ± 0.37 kg/m3
mass density (353.15 K, 101.33 kPa): 955.143 ± 0.38 kg/m3
mass density (358.15 K, 101.33 kPa): 950.989 ± 0.39 kg/m3
mass density (363.15 K, 101.33 kPa): 946.804 ± 0.39 kg/m3

CC(O)CCO (stereo unspecified) [1,3-butanediol]
mass density (288.15 K, 101.33 kPa): 1006.75 ± 0.2 kg/m3
speed of sound (292.86 K, 45590 kPa): 1686.5 ± 2.4 m/s
speed of sound (292.86 K, 75990 kPa): 1770.1 ± 2.3 m/s
speed of sound (292.86 K, 91180 kPa): 1808.7 ± 2.3 m/s
speed of sound (292.86 K, 101320 kPa): 1833.6 ± 2.3 m/s
speed of sound (292.87 K, 15200 kPa): 1592.1 ± 2.4 m/s
speed of sound (292.87 K, 30390 kPa): 1641 ± 2.4 m/s
speed of sound (292.87 K, 60790 kPa): 1729.5 ± 2.4 m/s
speed of sound (292.92 K, 101.33 kPa): 1537.7 ± 1.3 m/s
mass density (293.15 K, 101.33 kPa): 1003.52 ± 0.19 kg/m3
mass density (298.15 K, 101.33 kPa): 1000.23 ± 0.19 kg/m3
speed of sound (298.15 K, 15200 kPa): 1578.4 ± 2.4 m/s
speed of sound (298.15 K, 30390 kPa): 1628 ± 2.4 m/s
speed of sound (298.15 K, 45590 kPa): 1673.8 ± 2.4 m/s
speed of sound (298.15 K, 60790 kPa): 1717.4 ± 2.4 m/s
speed of sound (298.15 K, 75990 kPa): 1758.3 ± 2.4 m/s
speed of sound (298.15 K, 91180 kPa): 1797.3 ± 2.3 m/s
speed of sound (298.15 K, 101320 kPa): 1822.1 ± 2.3 m/s
speed of sound (298.2 K, 101.33 kPa): 1523.3 ± 1.3 m/s
speed of sound (303.13 K, 15200 kPa): 1565.3 ± 2.4 m/s
speed of sound (303.13 K, 30390 kPa): 1615.9 ± 2.4 m/s
speed of sound (303.13 K, 45590 kPa): 1662.2 ± 2.4 m/s
speed of sound (303.13 K, 60790 kPa): 1706 ± 2.4 m/s
speed of sound (303.13 K, 75990 kPa): 1747.3 ± 2.4 m/s
speed of sound (303.13 K, 91180 kPa): 1786.7 ± 2.3 m/s
speed of sound (303.13 K, 101320 kPa): 1811.6 ± 2.3 m/s
mass density (303.15 K, 101.33 kPa): 996.895 ± 0.19 kg/m3
speed of sound (303.17 K, 101.33 kPa): 1509.7 ± 1.3 m/s
speed of sound (308.11 K, 101320 kPa): 1801.7 ± 2.3 m/s
speed of sound (308.12 K, 45590 kPa): 1650.6 ± 2.4 m/s
speed of sound (308.12 K, 75990 kPa): 1736.7 ± 2.4 m/s
speed of sound (308.13 K, 15200 kPa): 1552.4 ± 2.4 m/s
speed of sound (308.13 K, 30390 kPa): 1603.5 ± 2.4 m/s
speed of sound (308.13 K, 60790 kPa): 1694.6 ± 2.4 m/s
speed of sound (308.13 K, 91180 kPa): 1776.3 ± 2.3 m/s
mass density (308.15 K, 101.33 kPa): 993.524 ± 0.2 kg/m3
speed of sound (308.16 K, 101.33 kPa): 1496 ± 1.3 m/s
speed of sound (313.11 K, 15200 kPa): 1539.6 ± 2.4 m/s
speed of sound (313.11 K, 30390 kPa): 1591.2 ± 2.4 m/s
speed of sound (313.11 K, 45590 kPa): 1639.1 ± 2.4 m/s
speed of sound (313.11 K, 60790 kPa): 1683.6 ± 2.4 m/s
speed of sound (313.11 K, 75990 kPa): 1725.9 ± 2.4 m/s
speed of sound (313.11 K, 91180 kPa): 1765.9 ± 2.3 m/s
speed of sound (313.11 K, 101320 kPa): 1791.5 ± 2.3 m/s
speed of sound (313.14 K, 101.33 kPa): 1482.3 ± 1.3 m/s
mass density (313.15 K, 101.33 kPa): 990.116 ± 0.2 kg/m3
mass density (318.16 K, 101.33 kPa): 986.665 ± 0.2 kg/m3
speed of sound (318.29 K, 15200 kPa): 1526.2 ± 2.4 m/s
speed of sound (318.29 K, 30390 kPa): 1578.4 ± 2.4 m/s
speed of sound (318.29 K, 45590 kPa): 1627 ± 2.4 m/s
speed of sound (318.29 K, 60790 kPa): 1672 ± 2.4 m/s
speed of sound (318.29 K, 75990 kPa): 1714.8 ± 2.4 m/s
speed of sound (318.29 K, 91180 kPa): 1755.2 ± 2.3 m/s
speed of sound (318.29 K, 101320 kPa): 1781.1 ± 2.3 m/s
speed of sound (318.32 K, 101.33 kPa): 1467.9 ± 1.3 m/s
mass density (323.15 K, 101.33 kPa): 983.181 ± 0.21 kg/m3
mass density (328.16 K, 101.33 kPa): 979.654 ± 0.21 kg/m3
mass density (333.16 K, 101.33 kPa): 976.087 ± 0.22 kg/m3
mass density (338.15 K, 101.33 kPa): 972.476 ± 0.22 kg/m3
mass density (343.15 K, 101.33 kPa): 968.825 ± 0.23 kg/m3
mass density (348.16 K, 101.33 kPa): 965.14 ± 0.23 kg/m3
mass density (353.15 K, 101.33 kPa): 961.411 ± 0.24 kg/m3
mass density (358.15 K, 101.33 kPa): 957.637 ± 0.24 kg/m3
mass density (363.15 K, 101.33 kPa): 953.825 ± 0.25 kg/m3
